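Briefly, cells in 96-well plates were exposed to five compound concentrations for 48 h, and endpoints were estimated by linear interpolation. GI50 marks 50% less growth.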 The source made the active and inactive calls. Cut-off read from the data, not from the text of the source: active = GI50 up to about 1.1 µM and inactive = higher. Some results are limits rather than exact numbers.

From ChEMBL document CHEMBL1201862, “PubChem BioAssay data set” (2004) come the findings set out here.

Assay in all cases: NCI anticancer screen, dose series, 48 h
Experiment [1] relates to A498.
Experiment [2] relates to BT-549.
The subject of experiment [3] is CCRF-CEM.
Experiment [4] relates to COLO 205.
For experiment [5], the system named is EKVX.
Experiment [6] has as its system HCT-116.
Experiment [7] deals with HL-60.
Experiment [8] relates to HOP-62.
Experiment [9] has as its system K562.
Experiment [10] deals with MDA-MB-435.
Experiment [11] has as its system MDA-N.
The test system of experiment [12] is NCI-H23.
For experiment [13], the system named is NCI-H460.
Experiment [14] has as its system OVCAR-8.
Experiment [15] has as its system SK-MEL-28.
The subject of experiment [16] is SK-MEL-2.
The test system of experiment [17] is SK-OV-3.
Experiment [18] deals with SNB-19.
Experiment [19] has as its system SW-620.
Experiment [20] deals with U-251.

Regarding `Cn1c(=S)c2nc(SCCN3CCCC3)[nH]c2n(C)c1=O`, the GI50 in experiment [1] is > 100 µM (inactive); in experiment [2], > 100 µM (inactive); in experiment [3], > 100 µM (inactive); in experiment [4], > 100 µM (inactive); in experiment [5], 76 µM (inactive); in [6] it was > 100 µM (inactive). The GI50 in experiment [7], in experiment [8], in experiment [9], in experiment [10], in [11] and in [12] was > 100 µM (inactive) throughout. Further, the GI50 in experiment [13], in [14], in [15], in experiment [16], in experiment [17] and in experiment [18] was > 100 µM (inactive) throughout. Besides, the GI50 in experiment [19] and in experiment [20] was > 100 µM (inactive) in each case.

Consider `C1=N\CCNCCNCC/N=C\c2ccc(cc2)OCc2cccc(n2)COc2ccc/1cc2`, for which the GI50 is > 100 µM (inactive) in [1]; > 100 µM (inactive) in [2]; 27.6 µM (inactive) in [3]; > 100 µM (inactive) in [4]; > 100 µM (inactive) in experiment [5]; > 100 µM (inactive) in experiment [6]. Further, the GI50 in experiment [7] is 67.9 µM (inactive); in experiment [8] it was > 100 µM (inactive); in [9] it was 34.1 µM (inactive); in [10], 75.2 µM (inactive); in experiment [11], > 100 µM (inactive); in experiment [12], 86.3 µM (inactive). The GI50 in experiment [13] was 73.6 µM (inactive); in [14] it was > 100 µM (inactive); in experiment [15], > 100 µM (inactive); in experiment [16] it was > 100 µM (inactive); in experiment [17] it was > 100 µM (inactive); in experiment [18], > 100 µM (inactive). Also, the GI50 in experiment [19] was 95.5 µM (inactive); in experiment [20], > 100 µM (inactive).

As to `COC(=O)/C=C\C(C#N)(C#N)/N=C/c1sccc1C`, the GI50 is 14.8 µM (inactive) in [1]; 3.15 µM (inactive) in experiment [2]; 1 µM (active) in experiment [3]; 1.22 µM (inactive) in experiment [4]; 3.59 µM (inactive) in [5]; 2.43 µM (inactive) in [6]. The GI50 in experiment [7] is 1.88 µM (inactive); in [8] it was 14.7 µM (inactive); in experiment [9], 3.3 µM (inactive); in experiment [10] it was 3.58 µM (inactive); in experiment [11], 3.59 µM (inactive); in experiment [12], 7.03 µM (inactive). Further, the GI50 in experiment [13] was 16.4 µM (inactive); in experiment [14], 2.47 µM (inactive); in experiment [15], 4.88 µM (inactive); in experiment [16], 15.8 µM (inactive); in [17], 18.4 µM (inactive); in experiment [18], 17.3 µM (inactive). In addition, the results for the GI50 in experiment [19] and in experiment [20] were 1.58 µM (inactive) and 10 µM (inactive), respectively.

Take `CC(=O)NNc1nc(C)c(C(/C=C/c2ccccc2O)=N/N=C(N)N)s1`: the GI50 in experiment [1] was > 100 µM (inactive); in experiment [2], > 100 µM (inactive); in experiment [3], > 100 µM (inactive); in [4], > 100 µM (inactive); in experiment [5] it was 93.8 µM (inactive); in experiment [6], > 100 µM (inactive). Further, the GI50 in [7], in [8], in [9], in [10], in experiment [11] and in [12] was > 100 µM (inactive) throughout. Further, the GI50 in experiment [13], in experiment [14], in experiment [15], in experiment [16], in experiment [17] and in experiment [18] was > 100 µM (inactive) in each case. Moreover, the GI50 in experiment [19] and in experiment [20] was > 100 µM (inactive) in each case.

Take `COc1cc(C)cc2c1C(=O)C(Br)=CC2=O`: the GI50 in experiment [1] is 20.1 µM (inactive); in experiment [2], 11.1 µM (inactive); in experiment [3], 0.867 µM (active); in experiment [4] it was 1.72 µM (inactive); in experiment [5], 17.7 µM (inactive); in experiment [6], 6.7 µM (inactive). Moreover, the GI50 in experiment [7] was 1.53 µM (inactive); in [8] it was 17.8 µM (inactive); in [9], 1.93 µM (inactive); in experiment [10], 2.29 µM (inactive); in experiment [11], 3.56 µM (inactive); in experiment [12], 15.5 µM (inactive). Moreover, the GI50 is 19.4 µM (inactive) in experiment [13]; 6.34 µM (inactive) in experiment [14]; 17.4 µM (inactive) in [15]; 14.4 µM (inactive) in experiment [16]; 19.6 µM (inactive) in [17]; 16.3 µM (inactive) in [18]. Further, the GI50 was 1.89 µM (inactive) in experiment [19] and 19.5 µM (inactive) in experiment [20].

`CC1CC(N)=Nc2ccccc2N1Cc1ccccc1` (stereo not given): the GI50 in experiment [1] is 11.2 µM (inactive); in experiment [2], 13.3 µM (inactive); in experiment [3] it was 12.4 µM (inactive); in experiment [4], 14.9 µM (inactive); in experiment [5], 22.1 µM (inactive); in experiment [6], 29.3 µM (inactive). The GI50 in experiment [7] is 3.96 µM (inactive); in experiment [8] it was 13 µM (inactive); in [9], 4.98 µM (inactive); in experiment [10], 13.9 µM (inactive); in [11], 18 µM (inactive); in [12], 16.3 µM (inactive). For the same molecule, the GI50 in experiment [13] is 13.9 µM (inactive); in experiment [14], 14.6 µM (inactive); in experiment [15], 11.6 µM (inactive); in [16], 14.3 µM (inactive); in [17], 13.2 µM (inactive); in experiment [18], 15.9 µM (inactive). Besides, the GI50 is 12.6 µM (inactive) in experiment [19] and 15.2 µM (inactive) in [20].

As for `FC(F)(F)c1ccc2nc(Sc3ccccn3)cnc2c1`, the GI50 in experiment [1] was 19.7 µM (inactive); in experiment [2], 29.6 µM (inactive); in [3], 2.94 µM (inactive); in experiment [4], 53.2 µM (inactive); in experiment [5], 49.2 µM (inactive); in experiment [6], 44.3 µM (inactive). The GI50 was 4.14 µM (inactive) in experiment [7]; 35.3 µM (inactive) in experiment [8]; 51.4 µM (inactive) in experiment [9]; 58.1 µM (inactive) in [10]; 69.2 µM (inactive) in [11]; 28.4 µM (inactive) in [12]. In addition, the GI50 in experiment [13] is 48.4 µM (inactive); in experiment [14], 38.8 µM (inactive); in experiment [15] it was > 100 µM (inactive); in [16], 15.9 µM (inactive); in experiment [17], 33.8 µM (inactive); in experiment [18], 24.2 µM (inactive). Moreover, the GI50 in experiment [19] was 34.4 µM (inactive); in experiment [20] it was 18.8 µM (inactive).

In the case of `Cc1ccc(-c2sc(-c3ccc(C)cc3)c3c2C2CCC3C2)cc1`, the GI50 in [1], in experiment [2], in experiment [3], in experiment [4], in [5] and in experiment [6] was > 50 µM (inactive) throughout. Further, the GI50 in experiment [7], in [8], in [9], in experiment [10], in experiment [11] and in [12] was > 50 µM (inactive) throughout. Also, the GI50 in experiment [13], in experiment [14], in experiment [15], in experiment [16], in experiment [17] and in experiment [18] was > 50 µM (inactive) each time. In addition, the GI50 in experiment [19] and in [20] was > 50 µM (inactive) in each case.

Turning to `Cc1ccc([C@H]2CC(=O)C[C@H](c3ccc(C)cc3)C23C(=O)c2ccccc2C3=O)cc1`, the GI50 was > 100 µM (inactive) in experiment [1]; 34.3 µM (inactive) in experiment [2]; 14 µM (inactive) in experiment [3]; 37.2 µM (inactive) in [4]; > 100 µM (inactive) in experiment [5]; 34.6 µM (inactive) in experiment [6]. The GI50 in [7] is 11 µM (inactive); in experiment [8], 22.1 µM (inactive); in experiment [9], 23.3 µM (inactive); in experiment [10], 41.3 µM (inactive); in experiment [11] it was 52.8 µM (inactive); in [12], > 100 µM (inactive). For the same molecule, the GI50 in [13] is 47.2 µM (inactive); in experiment [14], 31 µM (inactive); in [15] it was > 100 µM (inactive); in [16], 31.2 µM (inactive); in experiment [17] it was 31.6 µM (inactive); in [18], 26.9 µM (inactive). For the same molecule, the figures for the GI50 in experiment [19] and in experiment [20] were 94.6 µM (inactive) and 16.7 µM (inactive), respectively.

Take `c1ccc2c(c1)Nc1c3ccccc3nc3cccc-2c13`: the GI50 is 2.51 µM (inactive) in experiment [1]; 7.43 µM (inactive) in [2]; 0.305 µM (active) in experiment [3]; 0.857 µM (active) in [4]; 1.55 µM (inactive) in experiment [5]; 0.499 µM (active) in [6]. Moreover, the GI50 was 1.58 µM (inactive) in experiment [7]; 1.02 µM (active) in experiment [8]; 0.386 µM (active) in experiment [9]; 1.61 µM (inactive) in [10]; 1.17 µM (inactive) in experiment [11]; 1.35 µM (inactive) in [12]. The GI50 is 0.378 µM (active) in experiment [13]; 0.507 µM (active) in [14]; 1.71 µM (inactive) in experiment [15]; 1.6 µM (inactive) in [16]; 1.35 µM (inactive) in [17]; 1.82 µM (inactive) in [18]. For the same molecule, the GI50 was 0.283 µM (active) in experiment [19] and 0.998 µM (active) in experiment [20].
